Measurements: ChEMBL document CHEMBL5352436, “Triterpenoid pyrazines and pyridines - Synthesis, cytotoxicity, mechanism of action, preparation of prodrugs” (Eur J Med Chem, 2022)
Calls of active or inactive are those of the source. The calls are words filed in the database; no cut-off is given here.

Tests used:
[1] = tested on: CCRF-CEM; experiment: Cytotoxicity against human CCRF-CEM cells assessed as reduction in cell viability incubated for 72 hrs by MTS assay; type: functional, cell-based
[2] = tested on: CEM-DNR; experiment: Cytotoxicity against human CEM-DNR cells assessed as reduction in cell viability incubated for 72 hrs by MTS assay; type: functional, cell-based
[3] = tested on: K562; experiment: Cytotoxicity against human K562 cells assessed as reduction in cell viability incubated for 72 hrs by MTS assay; type: functional, cell-based; conditions: K562, 72 h
[4] = Cytotoxicity against human K562-Tax cells assessed as reduction in cell viability incubated for 72 hrs by MTS assay; type: functional, cell-based
[5] = tested on: HCT-116; experiment: Cytotoxicity against human HCT-116 cells assessed as reduction in cell viability incubated for 72 hrs by MTS assay; type: functional, cell-based; conditions: HCT-116, 72 h
[6] = Cytotoxicity against human HCT116-p53-null cells assessed as reduction in cell viability incubated for 72 hrs by MTS assay; type: functional, cell-based
[7] = tested on: A549; experiment: Cytotoxicity against human A549 cells assessed as reduction in cell viability incubated for 72 hrs by MTS assay; type: functional, cell-based; conditions: A549, 72 h
[8] = tested on: U2OS; experiment: Cytotoxicity against human U2OS cells assessed as reduction in cell viability incubated for 72 hrs by MTS assay; type: functional, cell-based
[9] = Cytotoxicity against human BJ cells assessed as reduction in cell viability incubated for 72 hrs by MTS assay; type: toxicity, cell-based
[10] = Cytotoxicity against human MRC5 cells assessed as reduction in cell viability incubated for 72 hrs by MTS assay; type: toxicity, cell-based
[11] = Chemical stability in PBS buffer at pH 7.4 assessed as compound remaining measured at 15 mins by RF-MS analysis; type: physicochemical; conditions: read-out: Stability
[12] = Chemical stability in PBS buffer at pH 7.4 assessed as compound remaining measured at 30 mins by RF-MS analysis; type: physicochemical; conditions: read-out: Stability
[13] = Chemical stability in PBS buffer at pH 7.4 assessed as compound remaining measured at 60 mins by RF-MS analysis; type: physicochemical; conditions: read-out: Stability
[14] = Chemical stability in PBS buffer at pH 7.4 assessed as compound remaining measured at 120 mins by RF-MS analysis; type: physicochemical; conditions: read-out: Stability
[15] = Stability in human plasma assessed as compound remaining at 2 uM measured at 15 mins by RF-MS analysis; type: ADME, cell-free; conditions: read-out: Stability
[16] = Stability in human plasma assessed as compound remaining at 2 uM measured at 30 mins by RF-MS analysis; type: ADME, cell-free; conditions: read-out: Stability
[17] = Stability in human plasma assessed as compound remaining at 2 uM measured at 60 mins by RF-MS analysis; type: ADME, cell-free; conditions: read-out: Stability
[18] = Stability in human plasma assessed as compound remaining at 2 uM measured at 120 mins by RF-MS analysis; type: ADME, cell-free; conditions: read-out: Stability
[19] = Stability in human liver microsomes assessed as compound remaining at 2 uM measured at 15 mins in presence of NADPH by RF-MS analysis; type: ADME, Microsome; conditions: read-out: Stability
[20] = Stability in human liver microsomes assessed as compound remaining at 2 uM measured at 30 mins in presence of NADPH by RF-MS analysis; type: ADME, Microsome; conditions: read-out: Stability
[21] = Stability in human liver microsomes assessed as compound remaining at 2 uM measured at 60 mins in presence of NADPH by RF-MS analysis; type: ADME, Microsome; conditions: read-out: Stability
[22] = Plasma protein binding in human at 10 uM by rapid equilibrium dialysis based RF-MS analysis; type: ADME, cell-free; conditions: read-out: PB (converted)
[23] = Apparent permeability of the compound in MDCK-MDR1 cells at 10 uM incubated for 1 hr by RF-MS analysis; type: ADME, cell-based, Canis lupus familiaris; conditions: dog
[24] = Efflux ratio of apparent permeability across basolateral to apical side over apical to basolateral side in MDCK-MDR1 cells; type: ADME, cell-based, Canis lupus familiaris; conditions: dog
[25] = Apparent permeability of the compound in MDCK-MDR1 cells assessed as drug recovery at 10 uM incubated for 1 hr by RF-MS analysis; type: ADME, cell-based, Canis lupus familiaris; conditions: dog, read-out: Drug recovery
[26] = tested on: HCT-116; experiment: Antitumor activity in human HCT-116 cells cultured as spheroids assessed as inhibition of cell growth at 10 uM incubated for 3 days; type: functional; set-up: scale not given: the % may be the effect or the level left; conditions: time 3 day
[27] = tested on: HeLa; experiment: Antitumor activity in human HeLa cells cultured as spheroids assessed as inhibition of spheroid opening at 1 uM incubated for 3 days; type: functional, cell-based; conditions: time 3.0 day

Structure (SMILES): C=C(C)[C@@H]1CC[C@]2(C(=O)OCc3cn([C@H]4O[C@H](COC(C)=O)[C@@H](OC(C)=O)[C@H](OC(C)=O)[C@H]4OC(C)=O)nn3)CC[C@]3(C)[C@H](CC[C@@H]4[C@@]5(C)Cc6nccnc6C(C)(C)[C@@H]5CC[C@]43C)[C@@H]12 (stereo in doubt)
- IC50 [1]: > 50 µM
- IC50 [2]: 49 µM
- IC50 [3]: > 50 µM
- IC50 [4]: > 50 µM
- IC50 [5]: > 50 µM
- IC50 [6]: > 50 µM
- IC50 [7]: > 50 µM
- IC50 [8]: > 50 µM
- IC50 at 72 h [9]: > 50 µM
- IC50 at 72 h [10]: > 50 µM
- remaining at 0.25 h [11]: 98.9%
- remaining at 0.5 h [12]: 99.5%
- remaining at 1 h [13]: 92.1%
- remaining at 2 h [14]: 92.9%
- remaining at 0.25 h, 2 µM [15]: 98.7%
- remaining at 0.5 h, 2 µM [16]: 91.2%
- remaining at 1 h, 2 µM [17]: 88%
- remaining at 2 h, 2 µM [18]: 87.1%
- remaining at 0.25 h, 2 µM [19]: 99.3%
- remaining at 0.5 h, 2 µM [20]: 98.3%
- remaining at 1 h, 2 µM [21]: 97.8%
- fraction unbound at 10 µM [22]: 0.107
- Papp at 1 h, 10 µM [23]: 16.7 nm/s
- efflux ratio [24]: 7.1
- recovery at 1 h, 10 µM [25]: 87.7%

Structure (SMILES): C=C(C=O)[C@@H]1CC[C@]2(C(=O)OCc3cn([C@H]4O[C@H](COC(C)=O)[C@@H](OC(C)=O)[C@H](OC(C)=O)[C@H]4OC(C)=O)nn3)CC[C@]3(C)[C@H](CC[C@@H]4[C@@]5(C)CC[C@H](O)C(C)(C)[C@@H]5CC[C@]43C)[C@@H]12
- IC50 [1]: 0.6 µM
- IC50 [2]: 1.6 µM
- IC50 [3]: 1.4 µM
- IC50 [4]: 1.6 µM
- IC50 [5]: 1.6 µM
- IC50 [6]: 1.7 µM
- IC50 [7]: 1.8 µM
- IC50 [8]: 1.7 µM
- IC50 at 72 h [9]: 1.8 µM
- IC50 at 72 h [10]: 1.7 µM
- remaining at 0.25 h [11]: 97.1%
- remaining at 0.5 h [12]: 92.5%
- remaining at 1 h [13]: 89.2%
- remaining at 2 h [14]: 83.8%
- remaining at 0.25 h, 2 µM [15]: 93.9%
- remaining at 0.5 h, 2 µM [16]: 88.7%
- remaining at 1 h, 2 µM [17]: 87%
- remaining at 2 h, 2 µM [18]: 82.3%
- remaining at 0.25 h, 2 µM [19]: 95.6%
- remaining at 0.5 h, 2 µM [20]: 82.7%
- remaining at 1 h, 2 µM [21]: 66.6%
- fraction unbound at 10 µM [22]: 0.0015
- Papp at 1 h, 10 µM [23]: 3.2 nm/s
- efflux ratio [24]: 3.77
- recovery at 1 h, 10 µM [25]: 103%
- Activity [26]: 100%
- Activity [27]: Active

Structure (SMILES): C=C(C)[C@@H]1CC[C@]2(C(=O)OCc3cn([C@H]4O[C@H](COC(C)=O)[C@@H](OC(C)=O)[C@H](OC(C)=O)[C@H]4OC(C)=O)nn3)CC[C@]3(C)[C@H](CC[C@@H]4[C@@]5(C)CC[C@H](O)C(C)(C)[C@@H]5CC[C@]43C)[C@@H]12
- IC50 [1]: > 50 µM
- IC50 [2]: > 50 µM
- IC50 [3]: > 50 µM
- IC50 [4]: > 50 µM
- IC50 [5]: > 50 µM
- IC50 [6]: > 50 µM
- IC50 [7]: > 50 µM
- IC50 [8]: > 50 µM
- IC50 at 72 h [9]: > 50 µM
- IC50 at 72 h [10]: > 50 µM
- remaining at 0.25 h [11]: 98.5%
- remaining at 0.5 h [12]: 92.7%
- remaining at 1 h [13]: 82.3%
- remaining at 2 h [14]: 77.9%
- remaining at 0.25 h, 2 µM [15]: 94.3%
- remaining at 0.5 h, 2 µM [16]: 92.2%
- remaining at 1 h, 2 µM [17]: 87.8%
- remaining at 2 h, 2 µM [18]: 83.4%
- remaining at 0.25 h, 2 µM [19]: 99%
- remaining at 0.5 h, 2 µM [20]: 98.8%
- remaining at 1 h, 2 µM [21]: 97%
- fraction unbound at 10 µM [22]: 0.0044
- Papp at 1 h, 10 µM [23]: 2.8 nm/s
- efflux ratio [24]: 5.61
- recovery at 1 h, 10 µM [25]: 77%
